The values below come from publication PMC12595476, “FibrilPaint to determine the length of Tau amyloids in fluids” (Proceedings of the National Academy of Sciences of the …, 2025).

Peptide text beside a SMILES is read from it. * marks the point of attachment. 5FAM = O=C1OC2(c3ccc(O)cc3Oc3cc(O)ccc32)c2ccc(C(=O)*)cc21

Series [1] has as its system TauRD (Tau Repeat Domain Q244-E372, ΔK280). Nature of the series: ThT assay of TauRD aggregation with titrated FibrilPaint peptides (ThT inhibition). It is filed as biochemical, human. Conditions: for ThT end-plateau / emitted ThT signal: 20 μM TauRD, 5 µM heparin, 45 µM ThT, peptide 2, 0.2, 0.02 µM, pH 7.4, 37 °C, triplicates, N = 3; for Tht inhibition: Yes/No, Suppl. Table S1. The text has this:
We used Tau Repeat Domain (Q244-E372, TauRD) with the proaggregation mutation ΔK280 as a model for screening our FibrilPaint compounds. We performed a Thioflavin T (ThT) assay. ThT is an amyloid dye and provides a semiqualitative method used for the identification of amyloid structures in vitro and histology staining ([32], [33], [38]). A ThT assay is an established method to monitor protein fibrils formation, in which the fluorescent dye ThT emits fluorescence upon binding to fibrils ([38]). We identified 45 µM ThT as optimal concentration to study the kinetics of TauRD aggregation (SI Appendix, Fig. S1), in line with the literature ([39]).
Twenty µM TauRD + 5 µM heparin were incubated ± 45 µM ThT in 25 mM HEPES-KOH pH 7.4, 75 mM KCl/NaCl (37 °C). ThT fluorescence (440/485 nm) was recorded every 5 min for 24 h on a CLARIOstar® Plus; peptides were added as indicated. […]
Peptide synthesis and purification
The peptides were synthesized using a Liberty Blue Microwave-Assisted Peptide Synthesizer (CEM) with standard Fmoc chemistry and Oxyma/DIC as coupling reagents. The peptide concentrations were measured by UV spectroscopy. The peptides were labeled with 5(6)-carboxyfluorescein at their N’ termini. The peptides were cleaved from the resin with a mixture of 95% (v/v) trifluoroacetic acid (TFA), 2.5% (v/v) triisopropylsilane (TIS), 2.5% (v/v) triple distilled water (TDW) agitating vigorously for 3 hours at room temperature. The volume was decreased by N2 flux and the peptides precipitated by addition of 4 volumes of diethylether at -20 °C. The peptides were sedimented at -20 °C for 30 minutes, then centrifuged and the diethylether discarded. The peptides were washed three times with diethylether and dried by gentle N2 flux. The solid was dissolved in 1:2 volume ratio of acetonitrile (ACN):TDW, frozen in liquid Nitrogen and lyophilized.
The peptides were purified on a WATERS HPLC using a reverse-phase C18 preparative column with a gradient of ACN/TDW. The identity and purity of the peptides was verified by ESI mass spectrometry and Merck Hitachi analytical HPLC using a reverse-phase C8 analytical column.
Aggregation of 20 µM TauRD in 25 mM HEPES-KOH pH 7.4, 75 mM KCl, 75 mM
NaCl, ½ tablet/50 ml Protease Inhibitor, was induced by the addition 5 µM of heparin low molecular weight Impact of FibrilPaint peptides was assessed by adding 0.02, 0.2 or 2 µM of peptide.
Monitoring TauRD aggregation by thioflavin T (ThT) fluorescence
For monitoring the aggregation of TauRD by fluorescence, ThT was added to the aggregation mixture before addition of heparin. We used 45 µM ThT as standard condition, unless stated otherwise. […]. […]

The target in series [2] is T1, TauRD fibrils (Homo sapiens, UniProt P10636, DEL597-597).
T1 construct: We used Tau Repeat Domain (Q244-E372, TauRD) with the proaggregation mutation ΔK280; made in house; host or cells: E. coli BL21 Rosetta 2
Nature of the series: FIDA (FibrilRuler Test): binding to TauRD fibrils. Conditions: detection of Tau amyloid fibrils with FIDA; Yes/No; Suppl. Table S1. The text has this:
(§1) Next, we screened the four FibrilPaint peptides for direct binding to TauRD fibrils. We developed an application of FIDA to determine the size of amyloid aggregates, called the FibrilRuler Test (Fig. 1B). FIDA is a recently established technique to measure size of protein complexes ([40], [41]). In FIDA, the detector records the fluorescence signal after passage of the sample through a long capillary. The sample passes a detector window, resulting in a size-dependent diffusion profile of the fluorescent compound. Smaller species diffuse faster and bigger ones slower, resulting in a narrow or broad dispersion of the fluorescent signal (Fig. 1B). Since FIDA readout relies on the physical diffusion properties of the sample, we can measure the hydrodynamic radius (Rh) of labeled species from the fluorescent signal ([42]–[44]). The Rh is a parameter corresponding to the size and shape of a molecule or a complex in solution. It is the radius of the sphere created by the tumbling particle. Rh values can be estimated from the structural coordinates, either by experimental methods or by predictions such as AlphaFold (SI Appendix, Table S2). For known structures, e.g., for many protein fibrils, an experimentally determined Rh value allows us to estimate the dimensions of the particle.
(§2) With this setup, we determined the Rh of FibrilPaint1 to 4 to be 1.7 nm each (SI Appendix, Table S1). The binding of the fluorescently labeled FibrilPaint peptide to protein fibrils increases the Rh value, as the peptide now tumbles together with the larger fibril (Fig. 1B). To measure the Rh of fibril complexes, we incubated preformed fibrils together with each of the four peptides in a 1:100 peptide:monomer ratio, using 200 nM peptide with fibrils made of 20 μM TauRD monomers.
(§3) Preformed or patient-derived fibrils (2 µM monomer) were mixed with 50 nM Fl-FibrilPaint1 and analyzed in capillary dissociation mode (25 °C, FIDA 1). […]
(§4) Data points were analysed using FIDAbio software, version 2.7. […]
Target sequence in this assay (P10636 with tags, fused parts or gaps isoform P10636-8 DEL280-280): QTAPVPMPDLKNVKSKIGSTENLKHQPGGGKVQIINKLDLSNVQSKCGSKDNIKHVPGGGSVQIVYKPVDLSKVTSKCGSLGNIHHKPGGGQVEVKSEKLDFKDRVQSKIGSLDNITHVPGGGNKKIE

A short description of series [3]: FIDA: Rh of peptide alone (unbound). Type of series: physicochemical. Conditions: peptide not bound to anything.
Source text: as §1, §2, §3, §4

In series [4] the target is T1, TauRD fibrils. Nature of the series: Monolith (MST / spectral shift) binding to TauRD fibrils. The settings on record: based on monomer concentration; 50 nM FibrilPaint1, TauRD fibrils 0.5 nM to 10 µM, pH 7.5, 37 °C; N = 3. The method, then:
(§5) We confirmed that FibrilPaint1 binds specifically TauRD fibrils and not monomers by assessing binding affinity with monolith spectral shift analysis (Fig. 1 D and E). […] Since many monomers are needed to form one fibril, true affinity lies higher.
(§6) FibrilPaint1 (50 nM) was titrated with TauRD monomer or fibrils (0.5 nM to 10 µM) at 37 °C (Monolith NT.115); binding was extracted from the 5 s MST response.
(§7) Aragonès Pedrola, Dekker, et al. August 2025 FibrilPaint
(§8) FibrilRuler Test: Size measurement with Flow Induced Dispersion […]
(§9) Flow Induced Dispersion Analysis (FIDA) was used to determine fibril size. The FIDA experiments were performed using a FIDA1 with a 480 nm excitation source. […]
as §4
(§10) Binding between FibrilPaint1 and TauRD monomers and fibrils was analyzed using Monolith (NanoTemper Technologies) Microscale thermophoresis system (MST). Thermophoresis was monitored at a concentration of 50 nM of FibrilPaint1 and a dilution series of the sample of interest, in 25 mM HEPES-KOH pH 7.5, 75 mM KCl, 75 mM NaCl. […]
(§11) Using equation 1, where L is the length and R the radius of the analysed particle, the mean length of the fibrils as function of Rh can be calculated.
(§12) As a model, PHF Fibril layers were stacked on top of each other using PyMOL software. […] Resulting structures were analysed for their Rh using FIDAbio hydrodynamic radii predictor.

The target in another series is T2, TauRD monomers (Homo sapiens, UniProt P10636, DEL597-597).
T2 construct: We used Tau Repeat Domain (Q244-E372, TauRD) with the proaggregation mutation ΔK280; made in house; host or cells: E. coli BL21 Rosetta 2
T2 sequence (P10636 with tags, fused parts or gaps isoform P10636-8 DEL280-280): as above
The experiment in a line: Monolith (MST / spectral shift) binding to TauRD monomers. The settings on record: 50 nM FibrilPaint1, 37 °C, N = 3, unit inferred. As for the experimental part: as §5, §6, §7, §8, §9, §4, §10, §11, §12

In another series the test system is Amyloid-β (Aβ) plaques. The settings on record: in words; cited from earlier work. An excerpt: The formation of amyloid fibrils is one of the earliest pathological hallmarks of neurodegenerative diseases ([3], [6], [12]–[15]). […] In AD, Aβ aggregation outside the cell precedes Tau aggregation inside the cell ([4], [13], [18]).

With “(Fl)-PWWDDPWWPWHHPHGSGSEEVD [FibrilPaint4, 22-residue fluorescein-labeled peptide]”, in series [1], the “ThT end-plateau / emitted ThT signal” value was “lower the end-plateau in a dose-dependent manner” and the Tht inhibition result is given as “Yes”. Also, the Fibril binding result on TauRD fibrils [2] was “No”. For the same molecule, the “Hydrodynamic radius (Rh)” value in series [3] is reported as 1.7 nm.

For “(Fl)-PWWDDPWWPWTTPTGSGSEEVD [FibrilPaint3, 22-residue fluorescein-labeled peptide]”, in series [1], the “ThT end-plateau / emitted ThT signal” value is on record as “lower the end-plateau in a dose-dependent manner” and the Tht inhibition entry is “Yes”. For the same molecule, the Fibril binding result on TauRD fibrils [2] is “No”. Further, the “Hydrodynamic radius (Rh)” value in series [3] came to 1.7 nm.

The term Kd denotes the constant that tells how readily two partners part at equilibrium. Consider `CC(C)[C@H](NC(=O)[C@H](CCC(=O)O)NC(=O)[C@H](CCC(=O)O)NC(=O)[C@H](CO)NC(=O)CNC(=O)[C@H](CO)NC(=O)CNC(=O)[C@H](Cc1c[nH]cn1)NC(=O)[C@@H]1CCCN1C(=O)[C@H](Cc1c[nH]cn1)NC(=O)[C@H](Cc1c[nH]cn1)NC(=O)[C@H](Cc1c[nH]c2ccccc12)NC(=O)[C@@H]1CCCN1C(=O)[C@H](Cc1c[nH]c2ccccc12)NC(=O)[C@H](Cc1c[nH]c2ccccc12)NC(=O)[C@@H]1CCCN1C(=O)[C@H](CCCNC(=N)N)NC(=O)[C@H](CCCNC(=N)N)NC(=O)[C@H](Cc1c[nH]c2ccccc12)NC(=O)[C@H](Cc1c[nH]c2ccccc12)NC(=O)[C@@H]1CCCN1C(=O)c1ccc2c(c1)C(=O)OC21c2ccc(O)cc2Oc2cc(O)ccc21)C(=O)N[C@@H](CC(=O)O)C(=O)O` [FibrilPaint1] (5FAM-PWWRRPWWPWHHPHGSGSEEVD-OH), for which the Kd at TauRD fibrils [4] is 1600 nM; at TauRD monomers, above 10000 nM.

On to “(Fl)-PWIRRPWWPWTTPTGSGSEEVD [FibrilPaint2, 22-residue fluorescein-labeled peptide]”, for which, in series [1], the “ThT end-plateau / emitted ThT signal” value was “lower the end-plateau in a dose-dependent manner” and the Tht inhibition entry is on record as “Yes”. Further, the Fibril binding entry at TauRD fibrils [2] is on record as “No”. For the same molecule, in series [3], the “Hydrodynamic radius (Rh)” value worked out at 1.7 nm.

B1: Lecanemab: antibody approved to target Amyloid-β (Aβ) plaques (antibody, chains of the INN, looked up, V domains shown)
VH: EVQLVESGGGLVQPGGSLRLSCSASGFTFSSFGMHWVRQAPGKGLEWVAYISSGSSTIYYGDTVKGRFTISRDNAKNSLFLQMSSLRAEDTAVYYCAREGGYYYGRSYYTMDYWGQGTTVTVSS
VL: DVVMTQSPLSLPVTPGAPASISCRSSQSIVHSNGNTYLEWYLQKPGQSPKLLIYKVSNRFSGVPDRFSGSGSGTDFTLRISRVEAEDVGIYYCFQGSHVPPTFGPGTKLEIK
As for B1, in the series on Amyloid-β (Aβ) plaques, the clinical effect entry was “modest” and the risks entry is given as “significant risks involved”.
